# From PMC11233931, “Remodeling tumor‐associated macrophage for anti‐cancer effects by rational design of irreversible inhibition of mitogen‐activated protein kinase‐activated protein kinase 2” (MedComm, 2024)
# How the values were obtained:
# Test in all cases: Eurofins kinase selectivity profile against 380 other human recombinant kinases (Table S2)
# Assay type in all cases: biochemical
# [1] = biological target: T1, 380 human recombinant protein kinases (Homo sapiens, UniProt P43403); conditions: ZAP-70(h), read-out: Inhibition rate (%)
# T1 construct: purchased Eurofins (Celle Lévescault)
# T1 sequence (P43403 1-619): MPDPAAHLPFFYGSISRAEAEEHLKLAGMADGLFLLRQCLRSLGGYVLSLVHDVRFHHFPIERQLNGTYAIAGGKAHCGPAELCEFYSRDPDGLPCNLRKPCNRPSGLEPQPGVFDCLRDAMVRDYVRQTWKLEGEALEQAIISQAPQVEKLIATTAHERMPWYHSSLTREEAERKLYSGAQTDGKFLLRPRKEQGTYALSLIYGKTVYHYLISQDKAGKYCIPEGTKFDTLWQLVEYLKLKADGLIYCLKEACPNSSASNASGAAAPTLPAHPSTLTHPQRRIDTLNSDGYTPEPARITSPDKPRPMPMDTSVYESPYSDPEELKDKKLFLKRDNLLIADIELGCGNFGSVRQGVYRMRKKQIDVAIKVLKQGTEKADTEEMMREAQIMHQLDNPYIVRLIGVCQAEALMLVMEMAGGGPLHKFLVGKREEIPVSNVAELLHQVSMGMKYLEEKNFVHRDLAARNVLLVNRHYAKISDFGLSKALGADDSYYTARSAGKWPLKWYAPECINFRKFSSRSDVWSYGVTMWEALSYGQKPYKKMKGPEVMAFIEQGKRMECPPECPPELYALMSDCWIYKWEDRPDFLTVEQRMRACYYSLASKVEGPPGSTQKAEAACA
# How it was run: (§1)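 Profiling against 380 human recombinant kinases carried out by Eurofins at various compound concentrations.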
# [2] = biological target: T2, 380 human recombinant protein kinases (Homo sapiens, UniProt Q6SA08); conditions: TSSK4(h), read-out: Inhibition rate (%)
# T2 construct: purchased Eurofins (Celle Lévescault)
# T2 sequence (Q6SA08 1-328): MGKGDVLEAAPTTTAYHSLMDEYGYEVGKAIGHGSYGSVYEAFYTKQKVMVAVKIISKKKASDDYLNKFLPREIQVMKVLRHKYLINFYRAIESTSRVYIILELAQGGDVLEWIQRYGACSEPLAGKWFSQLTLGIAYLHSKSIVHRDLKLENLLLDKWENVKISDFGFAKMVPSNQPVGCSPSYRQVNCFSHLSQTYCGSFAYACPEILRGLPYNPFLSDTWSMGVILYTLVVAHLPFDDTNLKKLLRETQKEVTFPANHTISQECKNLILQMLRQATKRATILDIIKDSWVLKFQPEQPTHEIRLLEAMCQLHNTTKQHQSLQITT
# How it was run: as §1
# [3] = biological target: T3, 380 human recombinant protein kinases (Homo sapiens, UniProt Q9NRH2); conditions: SNRK(h), read-out: Inhibition rate (%)
# T3 construct: purchased Eurofins (Celle Lévescault)
# T3 sequence (Q9NRH2 1-765): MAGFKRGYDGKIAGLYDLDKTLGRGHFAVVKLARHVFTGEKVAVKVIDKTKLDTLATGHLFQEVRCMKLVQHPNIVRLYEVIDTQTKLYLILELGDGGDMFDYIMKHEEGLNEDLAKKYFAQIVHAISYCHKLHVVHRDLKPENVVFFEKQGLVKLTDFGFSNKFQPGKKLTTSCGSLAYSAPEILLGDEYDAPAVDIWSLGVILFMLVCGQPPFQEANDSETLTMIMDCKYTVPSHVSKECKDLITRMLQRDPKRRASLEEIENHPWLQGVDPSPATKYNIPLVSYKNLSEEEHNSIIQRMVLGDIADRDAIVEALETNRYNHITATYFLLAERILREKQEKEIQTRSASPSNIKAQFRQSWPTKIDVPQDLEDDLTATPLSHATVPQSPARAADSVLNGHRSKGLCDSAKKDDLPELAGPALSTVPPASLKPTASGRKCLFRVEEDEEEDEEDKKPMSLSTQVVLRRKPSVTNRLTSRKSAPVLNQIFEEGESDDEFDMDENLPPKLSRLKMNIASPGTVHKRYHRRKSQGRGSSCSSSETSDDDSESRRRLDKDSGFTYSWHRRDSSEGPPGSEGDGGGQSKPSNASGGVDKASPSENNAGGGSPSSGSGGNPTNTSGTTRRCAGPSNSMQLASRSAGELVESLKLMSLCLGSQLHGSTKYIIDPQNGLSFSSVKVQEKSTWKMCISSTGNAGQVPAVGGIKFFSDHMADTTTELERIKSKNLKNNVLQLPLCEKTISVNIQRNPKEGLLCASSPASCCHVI
# How it was run: as §1
smiles,measurement,setting,value
C=CC(=O)Nc1cc(-c2cc(-c3cc4c([nH]3)CCNC4=O)ccn2)ccc1OC(F)(F)F [compound 11],inhibition at 0.01 µM,[1]; 10 nM,8%
same,inhibition at 0.1 µM,[1]; 100 nM,0%
same,inhibition at 1 µM,[1]; 1000 nM,-13%
same,inhibition at 0.01 µM,[2]; 10 nM,3%
same,inhibition at 0.1 µM,[2]; 100 nM,5%
same,inhibition at 1 µM,[2]; 1000 nM,2%
same,inhibition at 0.01 µM,[3]; 10 nM,4%
same,inhibition at 0.1 µM,[3]; 100 nM,4%
same,inhibition at 1 µM,[3]; 1000 nM,9%
